Experimental data as given in ChEMBL document CHEMBL5042530, “Discovery of Novel Pyridine-Dimethyl-Phenyl-DAPY Hybrids by Molecular Fusing of Methyl-Pyrimidine-DAPYs and Difluoro-Pyridinyl-DAPYs: Improving the Druggability toward High Inhibitory Activity, Solubility, Safety, and PK” (J Med Chem, 2022).

What was measured:
[1] = system: Human immunodeficiency virus 1; test: Antiviral activity against HIV-1 harboring K103N mutant infected in human MT4 cells assessed as protection against virus-induced cytotoxicity incubated for 5 days by MTT assay; assay type: functional, organism-based; conditions: Human immunodeficiency virus 1, MT4, 120 h
[2] = system: Human immunodeficiency virus 1; test: Antiviral activity against HIV-1 harboring RES056 mutant infected in human MT4 cells assessed as protection against virus-induced cytotoxicity incubated for 5 days by MTT assay; assay type: functional, organism-based; conditions: Human immunodeficiency virus 1, MT4, 120 h
[3] = Selectivity index, ratio of CC50 for cytotoxicity against human MT4 cells to EC50 for antiviral activity against HIV-1 IIIB infected in human MT4 cells; assay type: toxicity, cell-based; conditions: read-out: Ratio CC50/EC50
[4] = target: Human immunodeficiency virus type 1 reverse transcriptase (Human immunodeficiency virus 1, UniProt Q72547); test: Inhibition of recombinant wild type p66/p51 HIV1 reverse transcriptase incubated for 40 mins by picogreen dye-based spectrofluorometric analysis
[5] = Cytotoxicity against human MT4 cells assessed as reduction in cell viability measured after 5 days by MTT assay; assay type: toxicity, cell-based; conditions: time 5 day
[6] = system: Human immunodeficiency virus 1; test: Antiviral activity against wild type HIV-1 IIIB infected in human MT4 cells assessed as protection against virus-induced cytotoxicity incubated for 5 days by MTT assay; assay type: functional, organism-based; conditions: Human immunodeficiency virus 1, IIIB, MT4, 120 h
[7] = system: Human immunodeficiency virus 1; test: Antiviral activity against HIV-1 harboring E138K mutant infected in human MT4 cells assessed as protection against virus-induced cytotoxicity incubated for 5 days by MTT assay; assay type: functional, organism-based; conditions: Human immunodeficiency virus 1, MT4, 120 h
[8] = system: Human immunodeficiency virus 1; test: Antiviral activity against HIV-1 harboring Y181C mutant infected in human MT4 cells assessed as protection against virus-induced cytotoxicity incubated for 5 days by MTT assay; assay type: functional, organism-based; conditions: Human immunodeficiency virus 1, MT4, 120 h
[9] = system: Human immunodeficiency virus 1; test: Antiviral activity against HIV-1 harboring RT L100I mutant infected in human MT4 cells assessed as protection against virus-induced cytotoxicity incubated for 5 days by MTT assay; assay type: functional, organism-based; conditions: Human immunodeficiency virus 1, MT4, 120 h
[10] = system: Human immunodeficiency virus 1; test: Antiviral activity against HIV-1 harboring Y188L mutant infected in human MT4 cells assessed as protection against virus-induced cytotoxicity incubated for 5 days by MTT assay; assay type: functional, organism-based; conditions: Human immunodeficiency virus 1, MT4, 120 h

Structure (SMILES) | EC50 [1] [nM] | EC50 [2] [nM] | selectivity ratio [3] | IC50 [4] [nM] | CC50 at 120 h [5] [nM] | EC50 [6] [nM] | EC50 [7] [nM] | EC50 [8] [nM] | EC50 [9] [nM] | EC50 [10] [nM]
Cc1ncc(-c2cc(C)c(Nc3ccnc(Nc4ccc(C#N)cc4)n3)c(C)c2)cn1 | 7.8 | 641 | 2440 | 46.7 | 3900 | 1.6 | 24 | 23 | 68 | –
Cc1cc(-c2cccc3cc[nH]c23)cc(C)c1Nc1ccnc(Nc2ccc(C#N)cc2)n1 | 271 | – | 44 | 60.5 | 1000 | 23 | 124 | – | – | –
Cc1cnc(Nc2ccc(C#N)cc2)nc1Nc1c(F)cc(-c2ccco2)cc1F | 33 | – | 1920 | 12 | 8100 | 4.2 | 11.2 | 187 | 114 | 856
Cc1cnc(Nc2ccc(C#N)cc2)nc1Nc1c(F)cc(-c2ccsc2)cc1F | 185 | – | 36700 | 12 | 261000 | 7.1 | 49.5 | 306 | 279 | 1290
Cc1cc(-c2ccco2)cc(C)c1Nc1ccnc(Nc2ccc(C#N)cc2)n1 | 10 | – | 335 | 38.1 | 1700 | 5.1 | 14 | 28 | 51 | 150
Cc1cnc(Nc2ccc(C#N)cc2)nc1Nc1c(F)cc(-c2cncc(C#N)c2)cc1F | 135 | – | 2080 | 271 | 50000 | 24 | 86 | 1410 | 1880 | > 2000
Cc1cnc(Nc2ccc(C#N)cc2)nc1Nc1c(F)cc(-c2ccoc2)cc1F | 48 | – | 742 | 8.4 | 4200 | 5.7 | 12.3 | 150 | 228 | 1340
Cc1cnc(Nc2ccc(C#N)cc2)nc1Nc1c(F)cc(-c2cncc(C(F)(F)F)c2)cc1F | 631 | – | 41 | 857 | 8200 | 201 | 482 | > 2000 | > 2000 | > 2000
Cc1cnc(Nc2ccc(C#N)cc2)nc1Nc1c(F)cc(-c2cc(F)nc(F)c2)cc1F | 117 | – | 9570 | 55 | 103000 | 11 | 66 | 285 | 1730 | > 2000
Cc1cc(-c2ccc3cc[nH]c3c2)cc(C)c1Nc1ccnc(Nc2ccc(C#N)cc2)n1 | 209 | – | 275 | 53.4 | 5800 | 21 | 139 | 497 | 577 | –
Cc1csc(-c2cc(C)c(Nc3ccnc(Nc4ccc(C#N)cc4)n3)c(C)c2)c1 | 50 | – | 3060 | 56 | 34000 | 11 | 43 | 116 | 231 | 941
Cc1ccc(-c2cc(C)c(Nc3ccnc(Nc4ccc(C#N)cc4)n3)c(C)c2)s1 | 57 | – | 2570 | 43.8 | 28000 | 11 | 47 | 179 | 249 | 1280
Cc1cnc(Nc2ccc(C#N)cc2)nc1Nc1c(F)cc(-c2ccncc2)cc1F | 5.4 | – | – | 12 | – | – | 9.2 | 22 | 35 | 258
Cc1cnc(Nc2ccc(C#N)cc2)nc1Nc1c(F)cc(-c2ccnc(F)c2)cc1F | 20.9 | – | 45200 | 36 | 167000 | 3.7 | 17.9 | 74.5 | 105 | > 2000
Cc1cnc(Nc2ccc(C#N)cc2)nc1Nc1c(F)cc(-c2cncnc2)cc1F | 88 | – | 59 | 280 | 900 | 16 | 87 | > 916 | > 916 | > 916
Cc1cc(-c2ccnc(C(F)(F)F)c2)cc(C)c1Nc1ccnc(Nc2ccc(C#N)cc2)n1 | 37 | – | 923 | 68.5 | 6100 | 6.6 | 47 | 128 | 231 | –
Cc1cc(-c2cncnc2)cc(C)c1Nc1ccnc(Nc2ccc(C#N)cc2)n1 | 10 | 588 | 4020 | 343 | 6800 | 1.7 | 36 | 48 | 113 | –
Cc1cnc(Nc2ccc(C#N)cc2)nc1Nc1c(F)cc(-c2ccc(C#N)nc2)cc1F | 11 | – | 37500 | 22 | 62000 | 1.6 | 8.5 | 35 | 52 | 2380
Cc1cnc(Nc2ccc(C#N)cc2)nc1Nc1c(F)cc(-c2cccnc2)cc1F | 111 | – | 80 | 197 | 1100 | 14 | 59 | > 1090 | > 1090 | > 1090
Cc1cc(-c2cnc(C(F)(F)F)nc2)cc(C)c1Nc1ccnc(Nc2ccc(C#N)cc2)n1 | 8.4 | 429 | 951 | 64 | 4900 | 5.2 | 37 | 29.8 | 98 | 1260
Cc1cnc(Nc2ccc(C#N)cc2)nc1Nc1c(F)cc(-c2cccs2)cc1F | 51 | – | 1330 | 12 | 8000 | 6 | 12 | 241 | 176 | 980
Cc1ccnc2c1NC(=O)c1cccnc1N2C1CC1 [NEVIRAPINE] | – | – | – | – | > 15000 | – | – | – | – | > 2000
